# Values joined by “and” are separate entries in the source; they are usually repeats but may differ in a detail not shown here. Equal entries are not always repeated. Where two headings read alike, the source gives them in different places.
# Experiments:
# human TSHR = human TSHR (Homo sapiens, UniProt P16473); assay: HitHunter cAMP XS+ assay, cAMP Hunter cell line TSHR; assay type: cell-based; conditions: for RLU: replicates (1),(2)
# Description: Results are reported as raw RLU values and represent the
# mean ± SEM of 2 technical replicates.
# [1] = target: chimera RXFP1-2 (extracellular domain of RXFP1, transmembrane domain of RXFP2) (Homo sapiens, UniProt Q8WXD0); assay: HTRF cAMP assay in HEK293T cells transiently transfected with chimera RXFP1-2; assay type: cell-based; conditions: for Emax: HEK-293T
# chimera RXFP1-2 (extracellular domain of RXFP1, transmembrane domain of RXFP2) (Homo sapiens, UniProt Q8WXD0), sequence (Q8WXD0 417-754 limits assumed, stated change not applied): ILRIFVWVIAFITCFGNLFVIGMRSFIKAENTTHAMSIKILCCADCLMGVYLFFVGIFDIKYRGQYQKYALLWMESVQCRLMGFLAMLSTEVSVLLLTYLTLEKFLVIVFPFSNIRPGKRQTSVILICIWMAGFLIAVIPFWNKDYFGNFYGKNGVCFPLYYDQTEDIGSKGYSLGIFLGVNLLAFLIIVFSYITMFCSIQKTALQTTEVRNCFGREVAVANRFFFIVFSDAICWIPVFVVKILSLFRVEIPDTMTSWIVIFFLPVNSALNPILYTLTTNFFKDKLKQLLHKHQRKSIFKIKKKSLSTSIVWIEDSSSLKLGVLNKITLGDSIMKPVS
# chimera RXFP1-2 (extracellular domain of RXFP1, transmembrane domain of RXFP2) (Homo sapiens, UniProt Q8WXD0), sequence (Q9HBX9 1-409, stated change not applied, further chain): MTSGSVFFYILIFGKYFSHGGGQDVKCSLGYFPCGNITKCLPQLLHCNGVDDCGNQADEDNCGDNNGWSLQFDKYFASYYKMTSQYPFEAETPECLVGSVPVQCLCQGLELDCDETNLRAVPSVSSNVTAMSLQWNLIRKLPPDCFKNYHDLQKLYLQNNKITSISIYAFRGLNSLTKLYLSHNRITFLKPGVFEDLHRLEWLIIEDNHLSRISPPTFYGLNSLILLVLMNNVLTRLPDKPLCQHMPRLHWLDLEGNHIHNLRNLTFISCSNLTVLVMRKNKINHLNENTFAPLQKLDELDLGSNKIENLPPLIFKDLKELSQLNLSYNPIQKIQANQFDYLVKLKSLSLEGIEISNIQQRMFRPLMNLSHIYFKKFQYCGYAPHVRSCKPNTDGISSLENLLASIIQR
# Experimental: (§1) Fig. 2 6641 is an allosteric agonist of RXFP2. a HEK-RXFP2 cells co-treated with serial dilutions of INSL3 B dimer antagonist and 30 nM INSL3 or 0.28 µM 6641. HTRF cAMP dose-response inhibition curves were normalized to activity without antagonist co-treatment as 0% inhibition. b HTRF cAMP assay in HEK293T cells transiently transfected with WT or chimeric receptors. Chimera RXFP2-1 contains the extracellular domain of RXFP2 and the transmembrane domain of RXFP1, while chimera RXFP1-2 contains the extracellular domain of RXFP1 and the transmembrane domain of RXFP2. For each receptor, cAMP response induced by INSL3 and 6641 was normalized to FSK (2 µM) as 100% efficacy and DMSO vehicle as 0% efficacy. Emax and EC50 were calculated using four parameter nonlinear fit dose-response curves. Results are expressed as mean ± SEM of 3 independent experiments. Diagrams of the chimeric receptors were produced using GPCRdb.org[58], [59].
# (§2) Complementary RXFP2-1 and RXFP1-2 chimeric receptors were used to further investigate the involvement of the RXFP2 extracellular and transmembrane domains on 6641 activity. RXFP2-1 has the extracellular domain of RXFP2 and transmembrane domain of RXFP1, and RXFP1-2 is its complement.
# (§3) The HTRF Gs dynamic cAMP assay kit (CisBio, Bedford, MA) was used to measure intracellular cAMP accumulation in HEK293T cells (ATCC, Manassas, VA)[56]. […] The cell stock was verified mycoplasma free and authenticated by ATCC. Transient transfection was accomplished by treating cells in a 6-well plate with a mixture of 2 μg plasmid and 6 μL Lipofectamine 2000 (Invitrogen, Waltham, MA) per manufacturer’s protocol and incubating overnight. For cAMP measurement in 96-well format, HEK293T cells stably transfected with human RXFP2 (HEK-RXFP2), human RXFP1 (HEK-RXFP1), mouse Rxfp1 (HEK-Rxfp1) or transiently transfected with human RXFP1-RXFP2 chimeric receptors were seeded between 7500 and 30,000 cells per well, depending on cell line responsiveness, in serum-free DMEM medium and incubated overnight at 37 °C, 5% CO2. After 18 h, cells were treated with a titration of compound, 2 μM forskolin, or DMSO vehicle. Control wells were also treated with a titration of INSL3 (Phoenix Pharmaceuticals, Burlingame, CA) or human recombinant relaxin 2 (Peprotech, Cranbury, NJ). For the RXFP2 antagonist experiment, cells were co-treated with 0.28 μM compound or 30 nM INSL3 and a titration of the INSL3 B dimer antagonist[38],[39]. For the INSL3 allosteric modulation experiment, cells were co-treated with 0.025, 0.0025, or 0.00025 μM of compound and a titration of INSL3. Cells were incubated for 1 h at 37 °C, 5% CO2, and then kit cAMP-d2 and anti-cAMP antibody were added per manufacturer protocol. Plates were incubated for 1 h at room temperature and the signal was read on a CLARIOstar plate reader (BMG Labtech, Ortenberg, Germany) at 665 and 620 nm emission wavelengths.
# [2] = tested on: chimera RXFP1-2 (extracellular domain of RXFP1, transmembrane domain of RXFP2); assay: as above; assay type: cell-based, human
# chimera RXFP1-2 (extracellular domain of RXFP1, transmembrane domain of RXFP2), sequence (Q8WXD0 417-754 limits assumed, change not shown): as the sequence (Q8WXD0 417-754 limits assumed, stated change not applied) above
# chimera RXFP1-2 (extracellular domain of RXFP1, transmembrane domain of RXFP2), sequence (Q9HBX9 1-409, change not shown, further chain): as the sequence (Q9HBX9 1-409, stated change not applied, further chain) above
# Experimental: as §1, §2, §3
# HCO cells = assay: CellTiter-Glo cytotoxicity assay in HCO cells; assay type: cell-based, human; conditions: experiments (1)-(3)
# Description: Fig. 4 RXFP2 agonists induce mineralization of primary human osteoblasts and are non-cytotoxic. a Mineral hydroxyapatite fluorescent quantification after 14-day treatment in HCO cells. Results were normalized to control DMSO as 100% mineralization. b HCO and c HAVSMC toxicity after 24-h treatment with RXFP2 agonists, normalized to DMSO treatment as 0% toxicity. Results are expressed as mean ± SEM of 3 independent experiments. *p < 0.05, *** p < 0.001 vs. DMSO using One-way ANOVA.
# Cell viability studies were undertaken to identify potential cytotoxic effects of the RXFP2 agonists. HCO cells and human aortic vascular smooth muscle cells (HAVSMC) were treated for 24 h. […] At 8.3 µM and below, no toxicity was found in HCO cells and toxicity was below 20% in HAVSMC cells for all three compounds (Fig. 4b, c).
# The ATP CellTiter-Glo Luminescent Cell Viability Assay (Promega, Madison, WI) was used to measure cytotoxicity induced by the compounds in HCO cells and human aortic vascular smooth muscle cells (HAVSMC) (ATCC, Manassas, VA). HCO and HAVSMC cells were seeded in 96-well plates at 3000 and 7000 cells per well respectively. Cells were incubated overnight, treated with compound or DMSO vehicle and incubated for 24 h at 37 °C, 5% CO2. […] Plates were shaken for 2 min, incubated at room temperature for 10 min and the luminescent signal was read on a CLARIOstar plate reader.
# [3] = 6641, individual experiments, read-out: EC50 (1)-(3)
# human TSHR, sequence (P16473 21-764): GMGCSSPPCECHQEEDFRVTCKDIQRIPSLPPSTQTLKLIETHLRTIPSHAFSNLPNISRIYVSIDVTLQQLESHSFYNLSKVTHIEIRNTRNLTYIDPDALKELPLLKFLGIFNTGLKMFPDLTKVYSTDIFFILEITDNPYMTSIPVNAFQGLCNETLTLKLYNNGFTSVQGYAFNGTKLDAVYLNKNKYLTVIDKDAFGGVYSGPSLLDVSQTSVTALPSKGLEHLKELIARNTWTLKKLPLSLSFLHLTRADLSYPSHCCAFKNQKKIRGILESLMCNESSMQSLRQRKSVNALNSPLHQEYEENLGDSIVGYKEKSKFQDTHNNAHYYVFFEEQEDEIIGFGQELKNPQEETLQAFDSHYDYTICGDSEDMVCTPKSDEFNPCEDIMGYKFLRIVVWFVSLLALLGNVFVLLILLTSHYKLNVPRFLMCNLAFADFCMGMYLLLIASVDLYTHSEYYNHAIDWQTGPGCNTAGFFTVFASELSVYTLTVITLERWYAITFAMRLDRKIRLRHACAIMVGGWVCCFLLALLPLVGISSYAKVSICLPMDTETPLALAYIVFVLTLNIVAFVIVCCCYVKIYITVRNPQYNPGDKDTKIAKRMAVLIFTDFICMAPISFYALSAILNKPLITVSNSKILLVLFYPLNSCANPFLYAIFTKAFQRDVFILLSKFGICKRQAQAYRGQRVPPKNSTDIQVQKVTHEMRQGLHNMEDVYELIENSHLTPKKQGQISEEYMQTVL
structure (smiles),measurement,setting,value
O=C1Nc2ccc(-c3cc(C(F)(F)F)cc(C(F)(F)F)c3)cc2C(=O)N2CCN(C(=O)COc3ccc(OC(F)(F)F)cc3I)C[C@@H]12 [compound 6641],cAMP response through TSHR,human TSHR; Hit Hunter cAMP assay,did not result in an increase of cAMP level
same,RLU,human TSHR; Log [M] -4.70,1000 RLU and 1240 RLU
same,RLU,human TSHR; Log [M] -5.18,1000 RLU and 1040 RLU
same,RLU,human TSHR; Log [M] -5.65,960 RLU
same,RLU,human TSHR; Log [M] -6.13,1040 RLU
same,RLU,human TSHR; Log [M] -6.61,1200 RLU
same,RLU,human TSHR; Log [M] -7.08,880 RLU
same,RLU,human TSHR; Log [M] -7.56,920 RLU and 1000 RLU
same,RLU,human TSHR; Log [M] -8.04,880 RLU
same,RLU,human TSHR; Log [M] -8.52,1080 RLU and 920 RLU
same,RLU,human TSHR; Log [M] -8.99,960 RLU and 1040 RLU
same,EC50,[1]; [3],19 nM and 14 nM
same,Emax,"[1]; individual experiments, FSK (2 µM) = 100% efficacy, read-out: Emax (1)-(3)",96.5%
same,Emax,"[1]; mean (± SEM) of 3, FSK (2 µM) = 100% efficacy, read-out: Emax (AVERAGE)",96.47 ± 0.43%
same,EC50,[2]; [3],17 nM
same,Emax (1)-(3),"[2]; individual experiments, FSK (2 µM) = 100% efficacy",95.72% and 97.22%
same,% Tox,"HCO cells; Log [M] -6.03, 24 h",-11.63% and -7.45% and -4.96%
same,% Tox,"HCO cells; Log [M] -6.51, 24 h",-9.76% and -5.09% and -6.71%
